From PubChem BioAssay AID434987 (Southern Research Specialized Biocontainment Screening …, 2010) come the findings set out here.

Activity calls are given as the source filed them. No rule for the calls is given here.

In this assay the test system is M. tuberculosis H37Rv growth inhibition with meropenem. The assay can be described thus: dose response, H37Rv, with and without meropenem (AID 434987).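 Also: growth over 7 days at 37 °C before Alamar Blue read on day 9.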
Setting [1] is: M. tuberculosis H37Rv growth inhibition, measured here: IC50 without meropenem.
Setting [2] is: M. tuberculosis H37Rv growth inhibition, measured here: IC90 without meropenem.
Where [3] appears, read: measured here: IC90 with meropenem.

Consider `O=C(COC(=O)c1ccc([N+](=O)[O-])s1)NCc1ccccc1`, for which the IC50 (as a rule, the concentration needed to halve the response being measured) was 18.3 µM (inactive). The molecule further came in with an IC50 under setting [1] of 34.8 µM. In addition, the 90% effect concentration (IC90) – broadly, the point of the concentration-response curve where the effect stands at 90% – under setting [2] is > 100 µM. The molecule further gave a 90% effect concentration (IC90) under setting [3] of 39.4 µM.
In the case of `Cc1ccc(Cn2c(NC(=O)c3ccco3)nc3ccccc32)cc1`, the IC50 was 2.62 µM. The IC50 under setting [1] is > 100 µM. For the same molecule, under setting [2], the IC90 is > 100 µM. Further, the IC90 under setting [3] was > 100 µM.
On to `O=[N+]([O-])c1cc(Cl)cc(/C=N/NC(=S)Nc2cc(S(=O)(=O)N3CCOCC3)ccc2Cl)c1O`, for which the IC50 is 6.3 µM. The molecule further had a half-inhibitory concentration (IC50) under setting [1] of 18.2 µM. The 90% effect concentration (IC90) under setting [2] was found to be 30.5 µM. In addition, the IC90 under setting [3] turned out to be 29.3 µM.
For `COC(=O)/C(=C\Nc1ccc(Cl)c2ccccc12)c1ncc(C(F)(F)F)cc1Cl` the same measures were 36 µM, > 100 µM, > 100 µM and > 100 µM.
In the case of `Cc1ccc(Sc2c(C(=O)Nc3ccc(F)cc3F)c(C(F)(F)F)nn2C)cc1`, the IC50 was > 100 µM (inactive). Further, the IC50 under setting [1] is > 100 µM. Besides, the IC90 under setting [2] was > 100 µM. The IC90 under setting [3] is > 100 µM.
In the case of `O=C(OCC(=O)N1CCc2ccccc21)c1ccc(Cl)nc1`, the IC50 is 22.8 µM (inactive). This molecule gave a half-maximal inhibitory concentration (IC50) under setting [1] of 44 µM. Moreover, the IC90 under setting [2] is > 100 µM. Further, the IC90 under setting [3] is > 100 µM.
Take `CC(/C=C(\NC(=O)c1ccccc1)C(=O)N=Nc1c(O)[nH]c2ccc(C)cc12)=C\c1ccccc1`: the IC50 is > 100 µM (inactive). Further, the IC50 under setting [1] was > 100 µM. Further, under setting [2], the IC90 is > 100 µM. In addition, the IC90 under setting [3] was > 100 µM.
For `CC(C)CCN1CC(O)=C(c2nc3ccccc3[nH]2)C1=N`, the IC50 is 6.68 µM. This molecule also showed a 50% inhibitory concentration (IC50) under setting [1] of 73 µM. In addition, under setting [2], the IC90 is > 100 µM. Also, under setting [3], the IC90 is > 100 µM.
As to `Cn1c(/C=C/c2ccc(Br)cc2)c([N+](=O)[O-])c(=O)n(C)c1=O`, the IC50 is > 100 µM (inactive). Also, the half-maximal inhibitory concentration (IC50) under setting [1] is > 100 µM. In addition, under setting [2], the IC90 was > 100 µM. The IC90 under setting [3] is > 100 µM.
`COc1cc(/C=N/NC(=S)Nc2cccc(S(=O)(=O)N(C)C)c2)cc(OC)c1O`: the IC50 is > 100 µM (inactive). The IC50 under setting [1] was > 100 µM. In addition, the IC90 under setting [2] was > 100 µM. The concentration for an effect of 90% (IC90) under setting [3] was > 100 µM.
On to `Cc1ccc(C(=O)NCCc2nnc3ccc(SCC(=O)Nc4ccccc4C)nn23)cc1`, for which the IC50 is > 100 µM (inactive). The half-maximal inhibitory concentration (IC50) under setting [1] was > 100 µM. The IC90 under setting [2] is > 100 µM. Also, the IC90 under setting [3] is > 100 µM.
Take `Cc1ccc2c(Cl)cc(Cl)c(OCc3c(C)noc3C)c2n1`: the half-maximal inhibitory concentration (IC50) was 25.3 µM. Moreover, the half-maximal inhibitory concentration (IC50) under setting [1] is > 100 µM. Further, the IC90 under setting [2] is > 100 µM. Besides, the IC90 under setting [3] is > 100 µM.
Turning to `COc1ccc2[nH]c3c(c2c1)CCN=C3C`, the IC50 was > 100 µM (inactive). Besides, the IC50 under setting [1] was > 100 µM. In addition, the 90% effect concentration (IC90) under setting [2] is > 100 µM. In addition, under setting [3], the IC90 was > 100 µM.
`CCOC(OCC)c1cn(Cc2ccc3c(c2)C(=O)c2ccccc2C3=O)nn1`: the IC50 was > 100 µM (inactive). Also, under setting [1], the IC50 is > 100 µM. The IC90 under setting [2] was > 100 µM. Moreover, the IC90 under setting [3] is > 100 µM.
For the molecule `CCOC(=O)c1cnc2cc(-c3ccc(C(C)(C)C)cc3)nn2c1N`, the half-maximal inhibitory concentration (IC50) is 0.899 µM. Further, the IC50 under setting [1] stood at 12.1 µM. The IC90 under setting [2] is > 100 µM. The IC90 under setting [3] was found to be 5.74 µM.
`COCCCn1c(=O)/c(=C\c2cccc(OC)c2OC)s/c1=C(/C#N)C(=O)Nc1ccc(C(=O)O)cc1`: the IC50 is 5 µM. In addition, under setting [1], the IC50 came out at 14.6 µM. The IC90 under setting [2] was 31.4 µM. Also, under setting [3], the IC90 is 24.6 µM.
On to `CCOC(=O)c1sc(NC(=O)Cn2nnc3sc4c(c3c2=O)CCC(C(C)(C)C)C4)nc1C` (stereo not drawn), for which the IC50 is 93.7 µM (inactive). For the same molecule, the IC50 under setting [1] was > 100 µM. Further, under setting [2], the IC90 is > 100 µM. The IC90 under setting [3] was > 100 µM.
On to `CC(=O)OCC(=O)Nc1ccc(C(C)=O)cc1`, for which the IC50 is 89.2 µM (inactive). The molecule further returned an IC50 under setting [1] of 95.5 µM. Moreover, under setting [2], the IC90 was > 100 µM. Moreover, the IC90 under setting [3] was > 100 µM.
Turning to `COc1ccc(NC(=O)CCn2c(=O)c3cccn3c3ccccc32)cc1`, the IC50 is > 100 µM (inactive). The IC50 under setting [1] was > 100 µM. Moreover, the IC90 under setting [2] is > 100 µM. Under setting [3], the IC90 was > 100 µM.
Regarding `COc1cc2c(cc1OC)C(c1ccccc1)CC2=O` (stereo not drawn), the IC50 is 43.3 µM (inactive). This molecule registered an IC50 under setting [1] of 94 µM. Also, the concentration for an effect of 90% (IC90) under setting [2] is > 100 µM. The IC90 under setting [3] was > 100 µM.
As for `CCCn1nnnc1NC(=O)COc1ccc(Cl)cc1C`, the IC50 was 12.4 µM (inactive). Further, under setting [1], the IC50 turned out to be 24.3 µM. In addition, the IC90 under setting [2] was 28.6 µM. Further, the IC90 under setting [3] worked out at 42.9 µM.
For `c1ccc(Nc2ncnc3c2oc2ccccc23)cc1` the same measures were 2 µM, > 100 µM, > 100 µM and > 100 µM.
For `O=C1N/C(=C\c2ccc(O)cc2)C(=O)c2ccccc21` the same measures were 21.9 µM, 59.6 µM, > 100 µM and > 100 µM.
`CS(=O)(=O)N(Cc1ccccc1)c1ccc(C(=O)N2CCN(c3cccc(Cl)c3)CC2)cc1`: the IC50 is > 100 µM (inactive). Also, the IC50 under setting [1] was > 100 µM. Under setting [2], the IC90 was > 100 µM. Also, the IC90 under setting [3] is > 100 µM.
With `CCCCC(=O)NC(=S)Nc1ccc(NC(=O)C(C)C)c(OC)c1`, the IC50 was 99.9 µM (inactive). Moreover, the concentration for half-maximal inhibition (IC50) under setting [1] was > 100 µM. The IC90 under setting [2] was > 100 µM. Moreover, under setting [3], the IC90 is > 100 µM.
Consider `Cc1n[nH]c(C)c1CCCOc1ccccc1`, for which the IC50 is 24.1 µM (inactive). In addition, under setting [1], the IC50 is 39.5 µM. Besides, under setting [2], the IC90 is > 100 µM. The 90% effect concentration (IC90) under setting [3] is > 100 µM.
`O=C(Oc1c(-c2ccccc2)c(=O)n2c3c(cccc13)CC2)c1cccc([N+](=O)[O-])c1`: the IC50 is 3.97 µM. Also, the IC50 under setting [1] is 30.5 µM. This molecule also gave an IC90 under setting [2] of 85.1 µM. The molecule also registered an IC90 under setting [3] of 62.3 µM.
In the case of `Cc1cc(C)c2c(N)c(S(=O)c3ccc(C(C)(C)C)cc3)sc2n1` (stereo not drawn), the IC50 was > 100 µM (inactive). In addition, the IC50 under setting [1] is > 100 µM. The IC90 under setting [2] was > 100 µM. Also, the 90% effect concentration (IC90) under setting [3] was > 100 µM.
As to `O=c1oc(-c2cccs2)nc2sc3c(c12)CCC3`, the IC50 is 93 µM (inactive). For the same molecule, the IC50 under setting [1] was > 100 µM. In addition, under setting [2], the IC90 is > 100 µM. The IC90 under setting [3] was > 100 µM.
As for `CS/C(N)=N/N=C/c1cc(Br)cc(Br)c1O`, the IC50 is 19.7 µM (inactive). Under setting [1], this molecule gave a concentration for half-maximal inhibition (IC50) of 34.7 µM. Besides, the 90% effect concentration (IC90) under setting [2] is > 100 µM. Also, the IC90 under setting [3] was > 100 µM.
On to `Cc1onc(NC(=O)c2ccc([N+](=O)[O-])o2)c1Br`, for which the IC50 is 6.54 µM. The molecule further had an IC50 under setting [1] of 26.2 µM. The molecule also showed an IC90 under setting [2] of 36 µM. The molecule further yielded an IC90 under setting [3] of 16.4 µM.
Consider `CCC(=O)NC(=S)Nc1ccc(-c2nc3ccccc3s2)cc1`, for which the IC50 is > 100 µM (inactive). In addition, the IC50 under setting [1] is > 100 µM. Besides, under setting [2], the IC90 is > 100 µM. Also, under setting [3], the IC90 is > 100 µM.
